Holding throughout (assay type): cell-based
For one assay, the target named is T1, EGFR WT (Ba/F3 cells) (Homo sapiens, UniProt P00533).
T1 construct: expressed in transfected cells; host or cells: Ba/F3 (murine pro-B cells), retroviral transduction, puromycin selection, maintained with EGF
Kind of assay: Inhibitor activity on EGFR-dependent cell growth (CellTiter-Glo, 72 h), Ba/F3 EGFR WT. The settings on record: read-out: BaF3 WT IC50. In short, it runs like this:
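This growth assay used Ba/F3 cells that depend on wild-type EGFR and are kept in EGF without IL3. Compounds were made up as 10 mM DMSO stocks and diluted 3-fold over 10 points. 120 nL went onto 600 cells/well. After 72 hours, 40 μL CellTiter-Glo was added and luminescence read on EnVision after 30 min.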
Background: In ATP-based viability assays light output follows the ATP content of the culture.

Assay [1] concerns the target T2, EGFR exon 20 NPG Ins D770_N771 (Ba/F3 cells) (Homo sapiens, UniProt P00533, INS770NPG).
T2 construct: expressed in transfected cells; host or cells: Ba/F3 (murine pro-B cells), retroviral transduction, puromycin selection, IL3-independent pool
Kind of assay: Inhibitor activity on EGFR-dependent cell growth (CellTiter-Glo, 72 h), Ba/F3 EGFR exon 20 NPG Ins. The note with it: read-out: BaF3 NPG IC50. An excerpt: Example A. Inhibitor Activity on EGFR-Dependent Cell Growth
Cell lines are generated by transducing Ba/F3 cells with retroviruses containing vectors with EGFR WT, EGFR L858R, EGFR exon 19del, EGFR L858R/C797S, EGFR exon 20 NPG Ins D770_N771, EGFR exon 20 ASV Ins V769_D770, EGFR exon 20 SVD Ins D770_N771, or EGFR exon 20 FQEA Ins A763_V764 genes and a puromycin selection marker. Transduced cells are selected with puromycin for 7 days and are then be transferred into culture media without Interleukin 3 (IL3). EGFR WT cells are maintained with supplemental EGF. Surviving cells are confirmed to express EGFR by Western blot and maintained as a pool. The IC50 date were included in Table 6 and Table 7.
1.1 Cells are harvested from flask into cell culture medium and the cell number counted.
1.2 Cells are diluted with culture medium to the desired density and 40 μL of cell suspension is added into each well of 384-well cell culture plate and the seeding density is 800 (FQEA, exon 19del), 600 (WT, NPG, L858R/C797S), or 400 (ASV, SVD, L858R) cells/well.
2 Compound Preparation and Treatment
2.1 Test compounds are dissolved to 10 mM in a DMSO stock solution. 45 μL of stock solution is transferred to a 384 polypropylene plate (pp-plate). Perform 3-fold, 10-point dilution via transferring 15 μL compound into 30 μL DMSO using a TECAN (EVO200) liquid handler.
2.2 Spin plates at room temperature at 1,000 RPM for 1 minute.
2.3 Transfer 120 nL of diluted compound from compound source plate into the cell plate.
2.4 After compound treatment for 72 hours, perform CTG detection for compound treatment plates as described in “Detection” section.
3.1 Plates are removed from incubators and equilibrated at room temperature for 15 minutes.
3.2 Thaw the CellTiter Glo reagents and allow to equilibrate to room temperature before the experiment.
3.3 Add 40 μL of CellTiter-Glo reagent into each well (at 1:1 to culture medium). Then place the plates at room temperature for 30 min followed by reading on EnVision.
4.1 Inhibition activity is calculated following the formula below:
% Inhibition=100×(LumHC−LumSample)/(LumHC−LumLC) • where HC is obtained from cells treated with 0.1% DMSO only; and LC is obtained from culture medium only.
4.2 2. Calculate the IC50 by fitting the Curve using Xlfit (v5.3.1.3), equation 201.
Y=Bottom+(Top−Bottom)/(1+10^((Log IC50−X)*HillSlope))

The target of assay [2] is T3, EGFR exon 20 ASV Ins V769_D770 (Ba/F3 cells) (Homo sapiens, UniProt P00533, INS769ASV).
T3 construct: expressed in transfected cells; host or cells: Ba/F3 (murine pro-B cells), retroviral transduction, puromycin selection, IL3-independent pool
Kind of assay: Inhibitor activity on EGFR-dependent cell growth (CellTiter-Glo, 72 h), Ba/F3 EGFR exon 20 ASV Ins. The note with it: read-out: BaF3 ASV IC50. In short, it runs like this:
(§1)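 IC50s derive from a sigmoidal dose–response fit of CellTiter-Glo signal. The signal was normalised between […]-treated cells and cell-free medium. Ba/F3 mutant-EGFR cells, seeded at 400–800/well depending on the line, had 72 h of exposure to a 10-point, 3-fold compound series.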

Assay [3] addresses T4, EGFR exon 20 SVD Ins D770_N771 (Ba/F3 cells) (Homo sapiens, UniProt P00533, INS770SVD).
T4 construct: expressed in transfected cells; host or cells: Ba/F3 (murine pro-B cells), retroviral transduction, puromycin selection, IL3-independent pool
Kind of assay: Inhibitor activity on EGFR-dependent cell growth (CellTiter-Glo, 72 h), Ba/F3 EGFR exon 20 SVD Ins. The settings on record: read-out: BaF3 SVD IC50. An outline of the steps: as §1

Broadly, the IC50 is the concentration needed to halve the response being measured.

T3 sequence (P00533 with tags, fused parts or gaps INS769ASV): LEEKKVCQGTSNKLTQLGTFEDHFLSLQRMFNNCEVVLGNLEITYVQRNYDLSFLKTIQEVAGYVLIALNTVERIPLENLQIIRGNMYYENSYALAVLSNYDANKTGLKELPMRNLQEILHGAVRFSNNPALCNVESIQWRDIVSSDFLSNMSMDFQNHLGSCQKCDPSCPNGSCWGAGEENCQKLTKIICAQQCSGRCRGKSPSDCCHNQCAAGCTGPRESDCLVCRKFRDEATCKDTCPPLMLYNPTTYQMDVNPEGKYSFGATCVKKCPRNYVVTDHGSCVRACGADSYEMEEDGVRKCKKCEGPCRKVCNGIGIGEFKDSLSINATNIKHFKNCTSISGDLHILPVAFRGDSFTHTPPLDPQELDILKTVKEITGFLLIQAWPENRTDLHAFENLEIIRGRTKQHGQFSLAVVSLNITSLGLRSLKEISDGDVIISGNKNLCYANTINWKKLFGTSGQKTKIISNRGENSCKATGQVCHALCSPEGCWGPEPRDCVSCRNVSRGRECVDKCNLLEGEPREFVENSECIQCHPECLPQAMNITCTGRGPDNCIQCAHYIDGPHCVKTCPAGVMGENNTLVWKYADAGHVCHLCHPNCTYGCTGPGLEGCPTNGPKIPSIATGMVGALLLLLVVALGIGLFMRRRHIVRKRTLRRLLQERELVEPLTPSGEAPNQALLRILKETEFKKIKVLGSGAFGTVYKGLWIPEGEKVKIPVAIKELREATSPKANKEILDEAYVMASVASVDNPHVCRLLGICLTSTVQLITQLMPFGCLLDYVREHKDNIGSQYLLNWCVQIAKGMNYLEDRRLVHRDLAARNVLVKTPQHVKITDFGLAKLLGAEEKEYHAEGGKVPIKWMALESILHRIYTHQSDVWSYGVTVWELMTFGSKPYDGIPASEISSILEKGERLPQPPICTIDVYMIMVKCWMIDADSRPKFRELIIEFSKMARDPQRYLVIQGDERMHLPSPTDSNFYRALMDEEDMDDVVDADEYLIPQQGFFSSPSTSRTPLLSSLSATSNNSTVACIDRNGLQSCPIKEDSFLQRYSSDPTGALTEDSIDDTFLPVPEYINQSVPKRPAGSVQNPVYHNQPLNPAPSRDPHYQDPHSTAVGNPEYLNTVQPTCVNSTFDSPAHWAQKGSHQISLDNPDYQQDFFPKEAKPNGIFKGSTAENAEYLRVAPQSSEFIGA
T2 sequence (P00533 with tags, fused parts or gaps INS770NPG): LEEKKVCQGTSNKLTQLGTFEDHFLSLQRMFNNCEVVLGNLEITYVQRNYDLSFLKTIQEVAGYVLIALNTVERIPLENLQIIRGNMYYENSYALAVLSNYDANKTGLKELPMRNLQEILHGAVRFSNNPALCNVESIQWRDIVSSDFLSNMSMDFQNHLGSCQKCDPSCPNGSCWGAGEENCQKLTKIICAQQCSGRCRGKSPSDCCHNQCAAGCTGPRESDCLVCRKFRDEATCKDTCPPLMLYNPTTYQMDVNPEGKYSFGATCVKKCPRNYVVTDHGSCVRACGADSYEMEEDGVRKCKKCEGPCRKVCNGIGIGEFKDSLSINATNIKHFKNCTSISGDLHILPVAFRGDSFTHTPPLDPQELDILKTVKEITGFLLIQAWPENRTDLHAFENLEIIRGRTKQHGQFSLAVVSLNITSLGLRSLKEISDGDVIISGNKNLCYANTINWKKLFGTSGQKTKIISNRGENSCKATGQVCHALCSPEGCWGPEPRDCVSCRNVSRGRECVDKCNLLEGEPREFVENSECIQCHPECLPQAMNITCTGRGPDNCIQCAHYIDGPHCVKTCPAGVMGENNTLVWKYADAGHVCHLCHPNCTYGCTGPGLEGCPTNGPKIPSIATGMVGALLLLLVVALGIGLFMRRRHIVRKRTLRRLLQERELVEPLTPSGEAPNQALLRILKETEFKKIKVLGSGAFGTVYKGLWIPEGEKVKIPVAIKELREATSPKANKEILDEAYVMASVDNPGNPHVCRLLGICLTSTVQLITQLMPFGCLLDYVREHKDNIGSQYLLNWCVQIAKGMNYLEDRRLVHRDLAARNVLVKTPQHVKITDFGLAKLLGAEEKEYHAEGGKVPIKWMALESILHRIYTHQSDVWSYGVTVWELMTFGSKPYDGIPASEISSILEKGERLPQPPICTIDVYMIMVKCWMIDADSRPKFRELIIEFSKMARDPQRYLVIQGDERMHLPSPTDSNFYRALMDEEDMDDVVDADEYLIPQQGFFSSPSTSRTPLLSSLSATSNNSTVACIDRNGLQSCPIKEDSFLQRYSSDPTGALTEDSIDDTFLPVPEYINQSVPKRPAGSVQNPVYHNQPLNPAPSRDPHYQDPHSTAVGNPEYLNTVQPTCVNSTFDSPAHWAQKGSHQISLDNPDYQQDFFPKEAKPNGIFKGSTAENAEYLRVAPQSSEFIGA
T1 sequence (P00533 25-1210): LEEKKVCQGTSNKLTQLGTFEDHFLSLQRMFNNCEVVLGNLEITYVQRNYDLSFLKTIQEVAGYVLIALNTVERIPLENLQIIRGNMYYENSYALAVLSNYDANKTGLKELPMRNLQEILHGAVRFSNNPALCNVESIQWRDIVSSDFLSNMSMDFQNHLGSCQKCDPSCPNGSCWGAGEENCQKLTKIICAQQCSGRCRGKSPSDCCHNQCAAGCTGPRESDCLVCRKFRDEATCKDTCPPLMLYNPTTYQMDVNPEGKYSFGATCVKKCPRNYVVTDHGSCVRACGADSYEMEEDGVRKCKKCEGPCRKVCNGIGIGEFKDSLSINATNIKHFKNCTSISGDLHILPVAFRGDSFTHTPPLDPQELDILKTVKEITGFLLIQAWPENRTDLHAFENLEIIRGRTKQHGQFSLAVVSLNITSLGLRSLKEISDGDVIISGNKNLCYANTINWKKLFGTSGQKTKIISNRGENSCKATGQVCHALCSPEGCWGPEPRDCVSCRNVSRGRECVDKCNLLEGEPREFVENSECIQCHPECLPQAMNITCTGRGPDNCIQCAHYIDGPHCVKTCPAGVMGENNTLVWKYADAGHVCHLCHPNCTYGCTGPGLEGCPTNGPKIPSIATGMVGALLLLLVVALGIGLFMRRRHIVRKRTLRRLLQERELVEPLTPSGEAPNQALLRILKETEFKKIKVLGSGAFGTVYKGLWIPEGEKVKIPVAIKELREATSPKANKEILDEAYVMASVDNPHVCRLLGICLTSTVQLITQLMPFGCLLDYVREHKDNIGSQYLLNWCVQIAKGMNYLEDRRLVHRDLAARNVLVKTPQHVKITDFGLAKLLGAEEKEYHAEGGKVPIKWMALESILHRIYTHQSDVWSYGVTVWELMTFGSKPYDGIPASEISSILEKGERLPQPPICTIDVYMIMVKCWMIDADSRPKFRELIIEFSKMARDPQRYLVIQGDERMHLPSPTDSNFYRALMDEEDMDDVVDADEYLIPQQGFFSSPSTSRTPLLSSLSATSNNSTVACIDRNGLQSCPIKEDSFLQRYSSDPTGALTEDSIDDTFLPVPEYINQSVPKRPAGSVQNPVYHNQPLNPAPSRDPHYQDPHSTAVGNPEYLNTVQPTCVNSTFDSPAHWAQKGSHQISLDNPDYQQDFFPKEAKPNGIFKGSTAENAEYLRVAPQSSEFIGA
T4 sequence (P00533 with tags, fused parts or gaps INS770SVD): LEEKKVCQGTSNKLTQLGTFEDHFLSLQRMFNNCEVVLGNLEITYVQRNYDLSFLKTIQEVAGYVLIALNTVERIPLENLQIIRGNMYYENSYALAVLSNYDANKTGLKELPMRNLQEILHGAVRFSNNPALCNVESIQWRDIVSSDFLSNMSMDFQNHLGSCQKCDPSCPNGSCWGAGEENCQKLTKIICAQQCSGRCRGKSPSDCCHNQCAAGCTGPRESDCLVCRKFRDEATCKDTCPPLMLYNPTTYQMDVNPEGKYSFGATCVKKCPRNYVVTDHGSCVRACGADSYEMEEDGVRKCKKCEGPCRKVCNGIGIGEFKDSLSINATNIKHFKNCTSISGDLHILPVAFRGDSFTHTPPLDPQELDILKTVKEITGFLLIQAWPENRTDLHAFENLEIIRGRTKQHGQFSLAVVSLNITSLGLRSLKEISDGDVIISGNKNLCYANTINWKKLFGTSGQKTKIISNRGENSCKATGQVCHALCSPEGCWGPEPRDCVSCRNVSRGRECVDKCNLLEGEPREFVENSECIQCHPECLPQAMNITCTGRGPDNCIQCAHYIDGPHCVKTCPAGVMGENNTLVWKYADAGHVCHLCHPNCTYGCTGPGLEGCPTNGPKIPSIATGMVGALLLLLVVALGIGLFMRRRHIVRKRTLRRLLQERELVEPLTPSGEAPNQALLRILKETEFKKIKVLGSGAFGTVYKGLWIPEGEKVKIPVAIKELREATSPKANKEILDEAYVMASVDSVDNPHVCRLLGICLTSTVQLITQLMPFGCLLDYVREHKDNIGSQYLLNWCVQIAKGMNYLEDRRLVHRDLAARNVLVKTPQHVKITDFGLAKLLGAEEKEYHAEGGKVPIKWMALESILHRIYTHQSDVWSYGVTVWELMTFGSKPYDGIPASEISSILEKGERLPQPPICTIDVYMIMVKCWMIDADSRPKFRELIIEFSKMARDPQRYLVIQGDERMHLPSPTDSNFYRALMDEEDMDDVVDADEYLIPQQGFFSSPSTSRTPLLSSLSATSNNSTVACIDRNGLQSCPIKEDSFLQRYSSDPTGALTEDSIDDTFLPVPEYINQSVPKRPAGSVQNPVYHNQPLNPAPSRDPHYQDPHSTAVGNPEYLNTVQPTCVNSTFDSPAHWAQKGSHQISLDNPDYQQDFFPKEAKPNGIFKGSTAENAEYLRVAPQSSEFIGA

As for `COc1c(F)cccc1Nc1c(-c2ccnc(Nc3cnnn3C)n2)[nH]c2c1C(=O)NCC2` [compound 591, 3-[(3-fluoro-2-methoxyphenyl)amino]-2-{2-[(3-methyl-1,2,3-triazol-4-yl)amino]pyrimidin-4-yl}-1H,5H,6H,7H-pyrrolo[3,2-c]pyridin-4-one], the half-maximal inhibitory concentration (IC50) is 100 to 1000 nM at EGFR WT (Ba/F3 cells), < 100 nM in assay [1], < 100 nM in assay [2] and < 100 nM in assay [3].
`COc1c(Cl)cccc1Nc1c(-c2ccnc(-c3cn(C)nn3)n2)[nH]c2c1C(=O)NCC2` [compound 545, 3-[(3-chloro-2-methoxyphenyl)amino]-2-[2-(1-methyl-1,2,3-triazol-4-yl)pyrimidin-4-yl]-1H,5H,6H,7H-pyrrolo[3,2-c]pyridin-4-one]: the IC50 is > 1000 nM at EGFR WT (Ba/F3 cells), < 100 nM in assay [1], 100 to 1000 nM in assay [2] and 100 to 1000 nM in assay [3].
Regarding `COc1c(Cl)cccc1Nc1c(-c2ccncc2F)[nH]c2c1C(=O)NCC2C[C@H]1CO[C@H](CN(C)C)CO1` (single isomer, unassigned) [Compound 564, (7R*)-3-[(3-chloro-2-methoxyphenyl)amino]-7-{[(2S,5R)-5-[(dimethylamino)methyl]-1,4-dioxan-2-yl]methyl}-2-(3-fluoropyridin-4-yl)-1H,5H,6H,7H-pyrrolo[3,2-c]pyridin-4-one], the 50% inhibitory concentration (IC50) at EGFR WT (Ba/F3 cells) is > 1000 nM; in assay [1] it was 100 to 1000 nM; in assay [2] it was 100 to 1000 nM; in assay [3] it was 100 to 1000 nM.
For the molecule `COc1c(F)cccc1Nc1c(-c2ccnc3cnc(N4CCN(C(=O)/C=C/CN(C)C)CC4)nc23)[nH]c2c1C(=O)NCC2` [Compound 577, 2-(2-{4-[(2E)-4-(dimethylamino)but-2-enoyl]piperazin-1-yl}pyrido[3,2-d]pyrimidin-8-yl)-3-[(3-fluoro-2-methoxyphenyl)amino]-1H,5H,6H,7H-pyrrolo[3,2-c]pyridin-4-one], the IC50 at EGFR WT (Ba/F3 cells) is 100 to 1000 nM; in assay [1] it was < 100 nM; in assay [2] it was < 100 nM; in assay [3], < 100 nM.
On to `COc1c(Cl)cccc1Nc1c(-c2ccnc(-c3ccncn3)n2)[nH]c2c1C(=O)NCC2` [compound 546, 2-{[2,4′-bipyrimidin]-4-yl}-3-[(3-chloro-2-methoxyphenyl)amino]-1H,5H,6H,7H-pyrrolo[3,2-c]pyridin-4-one], for which the concentration for half-maximal inhibition (IC50) at EGFR WT (Ba/F3 cells) was > 1000 nM; in assay [1] it was 100 to 1000 nM; in assay [2], > 1000 nM; in assay [3] it was 100 to 1000 nM.
In the case of `COc1c(Cl)cccc1Nc1c(-c2ccnc(-c3cnn(C)c3)n2)[nH]c2c1C(=O)NCC2` [compound 121], the IC50 is 100 to 1000 nM on EGFR WT (Ba/F3 cells), < 100 nM in assay [1], < 100 nM in assay [2] and < 100 nM in assay [3].
On to `C=CC(=O)N1CCC2(CC1)CNC(=O)c1c2[nH]c(-c2ccncn2)c1Nc1cccc(Cl)c1OC` [Compound 478, 3′-[(3-chloro-2-methoxyphenyl)amino]-1-(prop-2-enoyl)-2′-(pyrimidin-4-yl)-5′,6′-dihydro-1′H-spiro[piperidine-4,7′-pyrrolo[3,2-c]pyridin]-4′-one], for which the half-inhibitory concentration (IC50) (at EGFR WT (Ba/F3 cells); in assay [1]; in assay [2]; in assay [3]) was < 100 nM each time.
As for `CC#CC(=O)N1CCC2(CC1)CNC(=O)c1c2[nH]c(-c2ccncc2F)c1Nc1cccc(Cl)c1OC` [Compound 555, 1-(but-2-ynoyl)-3′-[(3-chloro-2-methoxyphenyl)amino]-2′-(3-fluoropyridin-4-yl)-5′,6′-dihydro-1′H-spiro[piperidine-4,7′-pyrrolo[3,2-c]pyridin]-4′-one], the 50% inhibitory concentration (IC50) (on EGFR WT (Ba/F3 cells); in assay [1]; in assay [2]; in assay [3]) was > 1000 nM throughout.
Consider `COc1c(Cl)cccc1Nc1c(-c2ccncc2F)[nH]c2c1C(=O)NCC21CCN(C(=O)/C=C/CN(C)C)CC1` [Compound 522, 3′-[(3-chloro-2-methoxyphenyl)amino]-1-[4-(dimethylamino)but-2-enoyl]-2′-(3-fluoropyridin-4-yl)-5′,6′-dihydro-1′H-spiro[piperidine-4,7′-pyrrolo[3,2-c]pyridin]-4′-one], for which the IC50 was > 1000 nM at EGFR WT (Ba/F3 cells), 100 to 1000 nM in assay [1], 100 to 1000 nM in assay [2] and 100 to 1000 nM in assay [3].
As for `C=CC(=O)N1CCC2(CC1)CNC(=O)c1c2[nH]c(-c2ccncc2F)c1Nc1cccc(Br)c1OC` [Compound 561, 3′-[(3-bromo-2-methoxyphenyl)amino]-2′-(3-fluoropyridin-4-yl)-1-(prop-2-enoyl)-5′,6′-dihydro-1′H-spiro[piperidine-4,7′-pyrrolo[3,2-c]pyridin]-4′-one], the IC50 on EGFR WT (Ba/F3 cells) was 100 to 1000 nM; in assay [1], < 100 nM; in assay [2], < 100 nM; in assay [3] it was < 100 nM.
For the molecule `COc1c(Cl)cccc1Nc1c(-c2ccnc(Nc3nnn(C)c3C)n2)[nH]c2c1C(=O)NCC2` [compound 607, 3-[(3-chloro-2-methoxyphenyl)amino]-2-{2-[(1,5-dimethyl-1,2,3-triazol-4-yl)amino]pyrimidin-4-yl}-1H,5H,6H,7H-pyrrolo[3,2-c]pyridin-4-one], the IC50 (at EGFR WT (Ba/F3 cells); in assay [1]; in assay [2]; in assay [3]) was > 1000 nM throughout.
Consider `COC(=O)N1CCC2(CNC(=O)c3c2[nH]c(-c2ccncc2F)c3Nc2cccc(Cl)c2OC)C1` (single isomer, unassigned) [Compound 497], for which the IC50 is 100 to 1000 nM at EGFR WT (Ba/F3 cells), < 100 nM in assay [1], 100 to 1000 nM in assay [2] and 100 to 1000 nM in assay [3].
As to `C=CC(=O)N1CCC2(CC1)CNC(=O)c1c2[nH]c(-c2ccncc2F)c1Nc1cccc(Cl)c1CC` [Compound 558, 3′-[(3-chloro-2-ethylphenyl)amino]-2′-(3-fluoropyridin-4-yl)-1-(prop-2-enoyl)-5′,6′-dihydro-1′H-spiro[piperidine-4,7′-pyrrolo[3,2-c]pyridin]-4′-one], the IC50 (at EGFR WT (Ba/F3 cells); in assay [1]; in assay [2]; in assay [3]) was < 100 nM in each case.
With `COc1c(F)cccc1Nc1c(-c2ccncn2)[nH]c2c1C(=O)NC[C@@H]2C[C@@H]1COCCO1` [Compound 529, (7S)-7-[(2R)-1,4-dioxan-2-ylmethyl]-3-[(3-fluoro-2-methoxyphenyl)amino]-2-(pyrimidin-4-yl)-1H,5H,6H,7H-pyrrolo[3,2-c]pyridin-4-one], the half-maximal inhibitory concentration (IC50) at EGFR WT (Ba/F3 cells) was > 1000 nM; in assay [1], 100 to 1000 nM; in assay [2], 100 to 1000 nM; in assay [3], 100 to 1000 nM.
Turning to `COc1c(Cl)cccc1Nc1c(-c2ccncn2)[nH]c2c1C(=O)NC[C@@H]2C[C@@H]1COCCO1` [Compound 528, (7S)-3-[(3-chloro-2-methoxyphenyl)amino]-7-[(2R)-1,4-dioxan-2-ylmethyl]-2-(pyrimidin-4-yl)-1H,5H,6H,7H-pyrrolo[3,2-c]pyridin-4-one], the results for the IC50 (at EGFR WT (Ba/F3 cells); in assay [1]) were > 1000 nM and < 100 nM, respectively.
The like results for `COc1c(Cl)cccc1Nc1c(-c2ccncn2)[nH]c2c1C(=O)NCC2C[C@H]1COCCO1` (single isomer, unassigned) [Compound 574, (7R*)-3-[(3-chloro-2-methoxyphenyl)amino]-7-[(2S)-1,4-dioxan-2-ylmethyl]-2-(pyrimidin-4-yl)-1H,5H,6H,7H-pyrrolo[3,2-c]pyridin-4-one] were, in that order, > 1000 nM and < 100 nM.

The values are drawn from patent publication US20240101576A1, “HETEROCYCLIC INHIBITORS OF EGFR AND/OR HER2, FOR USE IN THE TREATMENT OF CANCER” (Scorpion Therapeutics, Inc., priority 2020, published 2024).
